From US20110034418A1, “PHARMACEUTICAL COMPOSITION WITH BISPHOSPHONATE” (priority 2008, published 2011)

Biological target: T1, Human farnesyl pyrophosphate synthase (FPPS, Swissprot ID: P14324) (Homo sapiens, UniProt P14324)
T1 construct: made in house
T1 sequence (P14324 67-419 limits assumed): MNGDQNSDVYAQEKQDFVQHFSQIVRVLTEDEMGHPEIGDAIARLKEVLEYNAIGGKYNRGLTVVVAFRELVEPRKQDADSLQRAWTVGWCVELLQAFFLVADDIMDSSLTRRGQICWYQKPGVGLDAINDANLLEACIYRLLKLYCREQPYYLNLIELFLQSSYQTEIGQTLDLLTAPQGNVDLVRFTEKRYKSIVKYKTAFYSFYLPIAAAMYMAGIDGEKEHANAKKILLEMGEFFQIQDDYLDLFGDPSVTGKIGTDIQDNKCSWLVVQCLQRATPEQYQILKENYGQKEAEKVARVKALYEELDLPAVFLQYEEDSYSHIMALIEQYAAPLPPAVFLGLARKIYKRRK
Assay: label-free LC/MS/MS assay for farnesyl pyrophosphate synthase (FPPS), cell-free in vitro
Type: biochemical
Conditions: 5 min pre-incubation, GPP/IPP substrates, FPP quantified by LC/MS/MS
Procedure: For example, in a cell-free in vitro assay the superiority of compounds of the formula I over compounds already known can be shown. Briefly, the reaction proceeds in the presence of enzyme and an inhibitor of the formula I, and the reaction product (farneysyl pyrophosphate) is quantified by LC/MS/MS.
In detail, the inhibitor and enzyme are pre-incubated before adding the substrates
The assay is a label-free assay for farnesyl pyrophosphate synthase (FPPS) based on LC/MS/MS. This method quantifies in-vitro untagged farnesyl pyrophosphate (FPP) and is suitable for high throughput screening (HTS) to find inhibitors of FPPS and for the determinations of IC50 values of candidate compounds. The analysis time is 2.0 minutes with a total cycle time of 2.5 minutes. The analysis can be formatted for 384-well plates resulting in an analysis time of 16 hours per plate.
Pentanol, methanol, and isopropyl alcohol are HPLC grade and obtained from Fisher Scientific. DMIPA is from Sigma-Aldrich. Water is from an in-house Milli-Q system. […]
The Multiple Reaction Monitoring (MRM) transitions monitored are 381−>79− for FPP and 397−>159− for FSPP at a collision energy of 22 eV and a collision cell pressure of 2.1×10^−3 mbar of Ar. […]
The total cycle time per sample is 2.5 minutes. Since the analysis is formatted for 384-well plates, a plate is analyzed in 16 hours. […]

SMILES: CCc1cncn1CC(O)(P(=O)(O)O)P(=O)(O)O [Reference-Example 2, [2-(5-Ethyl-imidazol-1-yl)-1-hydroxy-1-phosphono-ethyl]-phosphonic acid]
- IC50: 2.4 to 3.1 nM
